Data set [1] concerns gravid White New Zealand female rabbits. Kind of data set: Teratogenicity in gravid White New Zealand rabbits. The class given is in vivo, rabbit. Particulars: day 5 to day 18 of gestation; for Affected foetuses, %: normal limit 1.5%. Here is the method: The protocol used comprised administering to gravid White New Zealand female rabbits (weighing each about 2900-3000 grams before gestation) a daily dose of 0 (batch of control animals), 5,10 or 50 mg/kg of each product to be tested by gastrogavage from day 5 to day 18 of gestation, then carrying out a cesarean operation on day 29 of gestation in order to enumerate:
(i) the total number of foestuses, and
(ii) the total number of foestuses presenting at least one malformation.
To appreciate the results of such a protocol it must be noted that natural malformations may occur. Statistically, the percentage of foetuses presenting at least one malformation in any control batch of gravid White New Zealand female rabbits is lower than or equal to 1.5% with respect to the total number of foetuses.
To be precise in this protocol a malformation comprises at least one of the following cases: articular limb blocade, anorous foetus, deviated tail, shorter tail, skull deformation, exemcephalia.

The test system of another data set is mice. As to the kind of experiment: Interaction with barbital. It counts as in vivo, mouse. The conditions noted are these: i.p., barbital 220 mg/kg. Here is the method:
Half an hour after the administration of CRL 41 153, groups of 10 mice receive an intraperitoneal injection of barbital (220 mg/kg).

A further data set has as its system CNS. Kind of data set: Neuropsychopharmacological profile as a whole. It counts as in vivo, mice and rats. Particulars: conclusion of the tests. Here is the method: In the neuropsychopharmacological study which follows, a solution of CRL 41 153 in distilled water (pH 1.5) was administered intraperitoneally in a volume of 20 ml/kg to male mice and 5 ml/kg to male rats.

Data set [2] can be described thus: pH of solutions in distilled water. The class given is physicochemical. The protocol: The neuropsychopharmacological study was undertaken according to the procedures described above for CRL 41 153, CRL 41 213 being adminstered intraperitoneally, in solution in distilled water, in a volume of 20 ml/kg to male mice and a volume of 5 ml/kg to male rats, and the pH of the injected solution varying with the concentration of CRL 41 213 according to the data given in Table II below.

Where a name gives a salt, the structure may show the parent alone.

As to `CCCNC(C)C(=O)c1cccc(N)c1` (stereo not drawn) [CRL 41 278], in data set [1] (10 mg/kg daily), the “Affected foetuses, number” value amounted to 1; the “Total foetuses (live)” value is reported as 92; the “Affected foetuses, %” value is 1.08%.
On to `CN(C)CCC(=O)c1ccc(N)cc1` [A 8, reference compound], for which, in data set [1] (10 mg/kg daily), the “Affected foetuses, number” value is reported as 5; the “Total foetuses (live)” value came out at 81; the “Affected foetuses, %” value came out at 6.17%.
For `CC(C)NCC(=O)c1cccc(N)c1` [A 15, reference compound], in that order: 14, 52 and 26.92%.
On the same counts, the results for `Nc1ccc(C(=O)CCN2CCSCC2)cc1` [A 13, reference compound] are 12, 43 and 27.90%.
As for `CC(C(=O)c1ccc(N)cc1)N1CCN(C)CC1` (stereo not drawn) [CRL 41 243], the “Duration of the sleep induced by barbital” value with mice is on record as “at strong doses reduces the duration of the sleep induced by barbital”. For the same compound, the “Antidepressant effects (overall)” value with CNS was “modest antidepressant effects”. Besides, the “Sedative effects (overall)” value in the data set on CNS is “moderate sedative effects”. Besides, the “Affected foetuses, number” value in data set [1] (50 mg/kg daily) came to 0. Moreover, in data set [1] (50 mg/kg daily), the “Total foetuses (live)” value is 87. Further, in data set [1] (50 mg/kg daily), the “Affected foetuses, %” value amounted to 0%. Besides, the pH in data set [2] (0.1 g/liter in distilled water) was 5.0; in data set [2] (0.2 g/liter in distilled water), 4.5; in data set [2] (0.4 g/liter in distilled water), 4.0; in data set [2] (0.8 g/liter in distilled water), 3.5; in data set [2] (3.2 g/liter in distilled water), 2.5; in data set [2] (6.4 g/liter in distilled water) it was 2.0. Moreover, the pH was 1.5 in data set [2] (25 g/liter in distilled water), 1.0 in data set [2] (50 g/liter in distilled water) and 5.5 in data set [2] (≤0.05 g/liter in distilled water).
Regarding `CC(C)NC(C)C(=O)c1cccc(N)c1` (stereo not drawn) [CRL 41 255], in data set [1] (10 mg/kg daily), the “Affected foetuses, number” value came to 1; the “Total foetuses (live)” value was determined as 89; the “Affected foetuses, %” value was 1.12%.
Consider `CCNCCC(=O)c1ccc(N)cc1` [A 7, reference compound], for which, in data set [1] (5 mg/kg daily), the “Affected foetuses, number” value is listed as 1; the “Total foetuses (live)” value is 80; the “Affected foetuses, %” value is listed as 1.25%. In addition, in data set [1] (10 mg/kg daily), the “Affected foetuses, number” value worked out at 4; the “Total foetuses (live)” value is given as 79; the “Affected foetuses, %” value is listed as 5.06%.
On to `Nc1ccc(C(=O)CN2CCCCC2)cc1` [A 18, reference compound], for which, in data set [1] (5 mg/kg daily), the “Affected foetuses, number” value was found to be 4; the “Total foetuses (live)” value was determined as 80; the “Affected foetuses, %” value is listed as 5.0%. Further, in data set [1] (10 mg/kg daily), the “Affected foetuses, number” value is 10; the “Total foetuses (live)” value stood at 51; the “Affected foetuses, %” value turned out to be 19.60%.
With `Nc1cccc(C(=O)CN2CCOCC2)c1` [A 17, reference compound], in data set [1] (5 mg/kg daily), the “Affected foetuses, number” value turned out to be 2; the “Total foetuses (live)” value turned out to be 77; the “Affected foetuses, %” value worked out at 2.59%. In addition, in data set [1] (10 mg/kg daily), the “Affected foetuses, number” value stood at 11; the “Total foetuses (live)” value stood at 46; the “Affected foetuses, %” value was determined as 23.91%.
For `Nc1ccc(C(=O)CCCN2CCCC2)cc1` [A 6, reference compound], in data set [1] (5 mg/kg daily), the “Affected foetuses, number” value was found to be 0; the “Total foetuses (live)” value stood at 89; the “Affected foetuses, %” value is recorded as 0%. In addition, in data set [1] (10 mg/kg daily), the “Affected foetuses, number” value was found to be 5; the “Total foetuses (live)” value was 86; the “Affected foetuses, %” value is 5.81%.
Regarding `Nc1ccc(C(=O)CCNC2CC2)cc1` [A 12, reference compound], in data set [1] (5 mg/kg daily), the “Affected foetuses, number” value came out at 2; the “Total foetuses (live)” value turned out to be 75; the “Affected foetuses, %” value came to 2.66%.
Take `Nc1cccc(C(=O)CN2CCCC2)c1` [A 21, reference compound]: in data set [1] (10 mg/kg daily), the “Affected foetuses, number” value is recorded as 4; the “Total foetuses (live)” value stood at 78; the “Affected foetuses, %” value worked out at 5.12%.
Turning to `CC(C)NCCCC(=O)c1cc(Cl)c(N)c(Cl)c1` [A 3, reference compound], in data set [1] (10 mg/kg daily), the “Affected foetuses, number” value was found to be 5; the “Total foetuses (live)” value was 82; the “Affected foetuses, %” value stood at 6.09%.
For `Nc1ccc(C(=O)CN2CCCC2)cc1` [A 20, reference compound], in that order: 5, 74 and 8.10%.
In the case of `Nc1ccc(C(=O)CCN2CCOCC2)cc1` [A 9, reference compound], in data set [1] (5 mg/kg daily), the “Affected foetuses, number” value was determined as 1; the “Total foetuses (live)” value is reported as 86; the “Affected foetuses, %” value worked out at 1.16%. Besides, in data set [1] (10 mg/kg daily), the “Affected foetuses, number” value is reported as 0; the “Total foetuses (live)” value is on record as 94; the “Affected foetuses, %” value is 0%. In data set [1] (50 mg/kg daily), the “Affected foetuses, number” value stood at 6; the “Total foetuses (live)” value is recorded as 82; the “Affected foetuses, %” value is given as 7.31%.
As for `CCC1CCCCN1C(C)C(=O)c1ccc(N)c(Br)c1` (stereo not drawn) [A 22, 1-(4-amino-3-bromophenyl)2-(2-ethylpiperidino)propanone, reference compound], in data set [1] (10 mg/kg daily), the “Affected foetuses, number” value was determined as 13; the “Total foetuses (live)” value was 46; the “Affected foetuses, %” value is 28.26%.
For `CN1CCN(CCC(=O)c2ccc(N)cc2)CC1` [A 11, reference compound], in that order: 6, 80 and 7.50%.
For `Nc1ccc(C(=O)CCCN2CCCCC2)cc1` [A 5, reference compound], in data set [1] (5 mg/kg daily), the “Affected foetuses, number” value is listed as 3; the “Total foetuses (live)” value is 81; the “Affected foetuses, %” value stood at 3.70%. Besides, in data set [1] (10 mg/kg daily), the “Affected foetuses, number” value was 4; the “Total foetuses (live)” value stood at 87; the “Affected foetuses, %” value was 4.59%.
As to `CC(C)NCCCC(=O)c1ccc(N)cc1` [A 1, reference compound], in data set [1] (10 mg/kg daily), the “Affected foetuses, number” value was 4; the “Total foetuses (live)” value was found to be 87; the “Affected foetuses, %” value was 4.59%.
On the same counts, the results for `CC(C)NCC(=O)c1ccc(N)cc1` [A 14, reference compound] are 3, 76 and 3.94%.
On the same counts, the results for `CC(C)(C)NCCCC(=O)c1ccc(N)cc1` [A 2, reference compound] are 4, 85 and 4.70%.
Regarding `CC(C(=O)c1cccc(N)c1)N1CCOCC1` (stereo not drawn) [CRL 41 268], in data set [1] (10 mg/kg daily), the “Affected foetuses, number” value is on record as 1; the “Total foetuses (live)” value is on record as 91; the “Affected foetuses, %” value worked out at 1.11%.
On the same counts, the results for `CC(C(=O)c1cccc(N)c1)N(C)C` (stereo not drawn) [CRL 41 260] are 1, 87 and 1.14%.
On the same counts, the results for `Nc1cccc(C(=O)CN2CCCCC2)c1` [A 19, reference compound] are 3, 62 and 4.83%.
Take `CC(C(=O)c1cccc(N)c1)N1CCCCC1` (stereo not drawn) [CRL 41 263, 1-(3-aminophenyl)-2-piperidinopropanone dihydrochloride]: in data set [1] (10 mg/kg daily), the “Affected foetuses, number” value is recorded as 0; the “Total foetuses (live)” value is reported as 92; the “Affected foetuses, %” value was found to be 0%.
In the case of `Nc1ccc(C(=O)CN2CCOCC2)cc1` [A 16, 1-(4-aminophenyl)-2-morpholinylethanone, reference compound], in data set [1] (5 mg/kg daily), the “Affected foetuses, number” value stood at 3; the “Total foetuses (live)” value stood at 81; the “Affected foetuses, %” value is 3.70%. Besides, in data set [1] (10 mg/kg daily), the “Affected foetuses, number” value was 13; the “Total foetuses (live)” value came out at 50; the “Affected foetuses, %” value is given as 26.0%.
`Nc1ccc(C(=O)CCN2CCCCC2)cc1` [A 10, reference compound]: in data set [1] (10 mg/kg daily), the “Affected foetuses, number” value amounted to 4; the “Total foetuses (live)” value came out at 78; the “Affected foetuses, %” value was found to be 5.12%.

The record behind these values is patent US4980377A, “1-(aminophenyl)-2-aminopropanone derivatives” (Laboratoire L. Lafon, priority 1984, dated 1990).
